Assay results from patent US20250163104A1, “MACROCYCLIC IMMUNOMODULATORS” (priority 2021, published 2025).
*1 amine or outer side, *2 acyl side, *3 side chain or, on linkers, in order; H or OH if unused. Where a SMILES comes first, the peptide text is derived from it. Bridges are numbered along the chain shown (N, C = ends). [ ]: non-standard residue; d: D form. The star is where a group is joined. ξ: configuration not given here. Phe(4-COOH) = N[C@@H](Cc1ccc(C(=O)O)cc1)C(=O)O; Bip = N[C@@H](Cc1ccc(-c2ccccc2)cc1)C(=O)O; X7 = CC(=N)NCCC[C@@H](N[*:1])C(=O)[*:2]; Phe(3-Me) = Cc1cccc(C[C@H](N)C(=O)O)c1; Gly(cPent) = N[C@H](C(=O)O)C1CCCC1; 4Pal = N[C@@H](Cc1ccncc1)C(=O)O; Cha = N[C@@H](CC1CCCCC1)C(=O)O; Ile(3ξ) = CCC(C)[C@H](N)C(=O)O; Thr(3ξ) = CC(O)[C@H](N)C(=O)O; Ala(CN) = N#CC[C@H](N)C(=O)O; Carboxymethyl = O=C(O)C*; Orn = NCCC[C@H](N)C(=O)O; Dab = NCC[C@H](N)C(=O)O; Sar = CNCC(=O)O

Target: T1, human PD-1 / PD-L1-Ig binding on Jurkat cell line over-expressing human PD-1 (Jurkat-PD-1) (Homo sapiens, UniProt Q15116)
T1 construct: expressed in transfected cells; host or cells: Jurkat
T1 sequence (Q15116 25-288): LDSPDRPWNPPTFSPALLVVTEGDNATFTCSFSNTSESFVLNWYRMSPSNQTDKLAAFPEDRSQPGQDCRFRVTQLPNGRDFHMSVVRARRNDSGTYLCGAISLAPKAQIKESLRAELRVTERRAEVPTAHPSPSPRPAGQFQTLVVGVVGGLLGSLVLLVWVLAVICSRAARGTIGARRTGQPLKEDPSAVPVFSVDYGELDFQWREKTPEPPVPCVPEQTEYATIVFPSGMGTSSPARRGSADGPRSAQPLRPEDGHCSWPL
Test: Jurkat-PD-1 Cell Binding High-Content Screening Assay (CBA)
Format: cell-based
Conditions: Jurkat HPD1_PDL1 IC50, Jurkat-PD-1 cells, PE-labeled PD-L1-Ig 20 nM final
Procedure, shortened: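 Compounds were preincubated with Jurkat-hPD-1 cells in DMEM plus 10% fetal calf serum for 2 h at 37° C. Phycoerythrin-labeled PD-L1-Ig (20 nM final) was then added for 1 hour. Cells were fixed in 4% paraformaldehyde with Hoechst 33342, and bound fluorescence was quantified by high-content imaging.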

First: CC(C)C[C@H]1NC(=O)[C@H](CCCN)NC(=O)[C@H](C(C)C)NC(=O)[C@H](Cc2ccc(-c3ccccc3)cc2)NC(=O)[C@H](C(C)C)NC(=O)[C@H](Cc2c[nH]c3ccccc23)NC(=O)[C@H](CC(=O)O)NC(=O)[C@H](Cc2ccc(C(=O)O)cc2)NC(=O)[C@H](Cc2ccc(OCC(=O)O)cc2)NC(=O)CSC[C@@H](C(=O)N[C@@H](CCN)C(=O)N[C@@H](CCCNC(=N)N)C(=O)O)NC(=O)[C@H](CO)NC(=O)[C@H](C(C)C)NC(=O)[C@H](CC2CCCCC2)NC(=O)[C@H](CCN)NC1=O [Compound 2586] ({CH2CO}-Y(Carboxymethyl)[Phe(4-COOH)]DWV[Bip]V[Orn][dL][Dab][Cha]VSC[Dab]R-OH; thioether N-14)
Second: CC(C)C[C@H]1NC(=O)[C@H](CCCN)NC(=O)[C@H](C(C)C)NC(=O)[C@H](Cc2ccc(-c3ccccc3)cc2)NC(=O)[C@H](C(C)C)NC(=O)[C@H](Cc2c[nH]c3ccccc23)NC(=O)[C@H](CC(=O)O)NC(=O)[C@H](Cc2ccc(C(=O)O)cc2)NC(=O)[C@H](Cc2ccc(OCC(=O)O)cc2)NC(=O)CSC[C@@H](C(=O)N[C@@H](CCN)C(=O)N[C@@H](CCCNC(=N)N)C(=O)O)NC(=O)[C@H](CCCN)NC(=O)[C@H](C(C)C)NC(=O)[C@H](CC2CCCCC2)NC(=O)[C@H](CCN)NC1=O [Compound 2587] ({CH2CO}-Y(Carboxymethyl)[Phe(4-COOH)]DWV[Bip]V[Orn][dL][Dab][Cha]V[Orn]C[Dab]R-OH; thioether N-14)
The IC50 of the first is 1.8-fold lower: 10 nM for the first, 18.4 nM for the second. The first is the more potent here.

Same assay, conditions: Jurkat-PD-1 cells, PE-labeled PD-L1-Ig 20 nM final; read-out: Jurkat HPD1_PDL1 IC50

`CCC(C)[C@@H]1NC(=O)[C@H](Cc2ccc(-c3ccccc3)cc2)NC(=O)[C@H](CC(C)C)NC(=O)[C@H](Cc2c[nH]c3ccccc23)NC(=O)[C@H](CC(=O)O)NC(=O)[C@H](Cc2ccc(OCC(=O)O)cc2)NC(=O)[C@H](Cc2ccc(OCC(=O)O)cc2)NC(=O)CSC[C@@H](C(=O)N[C@@H](CC(N)=O)C(=O)O)NC(=O)[C@H](CO)NC(=O)[C@H](C(C)C)NC(=O)[C@H](CC(C)C)NC(=O)[C@H](CCN)NC(=O)[C@@H](CC(C)C)NC(=O)[C@H](CCCN)NC1=O` (stereo partly drawn) [Compound 2576] ({CH2CO}-Y(Carboxymethyl)Y(Carboxymethyl)DWL[Bip][Ile(3ξ)][Orn][dL][Dab]LVSCN-OH; thioether N-14) and `CCC(C)[C@@H]1NC(=O)[C@H](Cc2ccc(-c3ccccc3)cc2)NC(=O)[C@H](CC(C)C)NC(=O)[C@H](Cc2c[nH]c3ccccc23)NC(=O)[C@H](CC(=O)O)NC(=O)[C@H](Cc2ccc(OCC(=O)O)cc2)NC(=O)[C@H](C(C)O)NC(=O)CSC[C@@H](C(=O)N[C@@H](CC(N)=O)C(=O)O)NC(=O)[C@H](CO)NC(=O)[C@H](C(C)C)NC(=O)[C@H](CC(C)C)NC(=O)[C@H](CCN)NC(=O)[C@@H](CC(C)C)NC(=O)[C@H](CCCN)NC1=O` (stereo partly drawn) [Compound 2577] ({CH2CO}-[Thr(3ξ)]Y(Carboxymethyl)DWL[Bip][Ile(3ξ)][Orn][dL][Dab]LVSCN-OH; thioether N-14) are within 1.5-fold of each other in IC50: 12.4 nM for the first, 13.1 nM for the second.

First: CC(=N)NCCC[C@@H](NC(=O)[C@@H]1CSCC(=O)N[C@@H](Cc2ccc(OCC(=O)O)cc2)C(=O)N[C@@H](Cc2ccc(C(=O)O)cc2)C(=O)N[C@@H](CC(=O)O)C(=O)N[C@@H](Cc2cccc(C)c2)C(=O)N[C@@H](C(C)C)C(=O)N[C@@H](Cc2ccc(-c3ccccc3)cc2)C(=O)N[C@@H](C(C)C)C(=O)N[C@@H](CCN)C(=O)N[C@H](CC(C)C)C(=O)N[C@@H](CCN)C(=O)N[C@@H](CC2CCCCC2)C(=O)N[C@@H](C(C)C)C(=O)N[C@@H](CCCN)C(=O)N1)C(=O)O [Compound 2588] ({CH2CO}-Y(Carboxymethyl)[Phe(4-COOH)]D[Phe(3-Me)]V[Bip]V[Dab][dL][Dab][Cha]V[Orn]C[X7]-OH; thioether N-14)
Second: Cc1cccc(C[C@@H]2NC(=O)[C@H](CC(=O)O)NC(=O)[C@H](Cc3ccc(C(=O)O)cc3)NC(=O)[C@H](Cc3ccc(OCC(=O)O)cc3)NC(=O)CSC[C@@H](C(=O)N[C@H](CCC(=O)O)C(=O)O)NC(=O)[C@H](CCCN)NC(=O)[C@H](C(C)C)NC(=O)[C@H](CC3CCCCC3)NC(=O)[C@H](CCN)NC(=O)[C@@H](CC(C)C)NC(=O)[C@H](CCN)NC(=O)[C@H](C(C)C)NC(=O)[C@H](Cc3ccc(-c4ccccc4)cc3)NC(=O)[C@H](C(C)C)NC2=O)c1 [Compound 2590] ({CH2CO}-Y(Carboxymethyl)[Phe(4-COOH)]D[Phe(3-Me)]V[Bip]V[Dab][dL][Dab][Cha]V[Orn]C[dE]-OH; thioether N-14)
The IC50 of the first is 3-fold lower: 10.1 nM for the first, 30.2 nM for the second. The first is the more potent here.

Molecule `Cc1cccc(C[C@@H]2NC(=O)[C@H](CC(=O)O)NC(=O)[C@H](Cc3ccc(C(=O)O)cc3)NC(=O)[C@H](Cc3ccc(OCC(=O)O)cc3)NC(=O)CSC[C@@H](C(=O)N[C@H](Cc3ccc(O)cc3)C(=O)O)NC(=O)[C@H](CCCN)NC(=O)[C@H](C(C)C)NC(=O)[C@H](CC3CCCCC3)NC(=O)[C@H](CCN)NC(=O)[C@@H](CC(C)C)NC(=O)[C@H](CCN)NC(=O)[C@H](C(C)C)NC(=O)[C@H](Cc3ccc(-c4ccccc4)cc3)NC(=O)[C@H](C(C)C)NC2=O)c1` [Compound 2589] ({CH2CO}-Y(Carboxymethyl)[Phe(4-COOH)]D[Phe(3-Me)]V[Bip]V[Dab][dL][Dab][Cha]V[Orn]C[dY]-OH; thioether N-14) has an IC50 of 34.3 nM.

Same assay, conditions: read-out: Jurkat HPD1_PDL1 IC50; Jurkat-PD-1 cells, PE-labeled PD-L1-Ig 20 nM final

Compared with `CCC(C)[C@@H]1NC(=O)[C@H](Cc2ccc(-c3ccccc3)cc2)NC(=O)[C@H](C2CCCC2)NC(=O)[C@H](Cc2c[nH]c3ccccc23)NC(=O)[C@H](CC(=O)O)NC(=O)[C@H](Cc2ccc(OCC(=O)O)cc2)NC(=O)[C@H](C(C)O)NC(=O)CSC[C@@H](C(=O)N[C@@H](CC(N)=O)C(=O)O)NC(=O)[C@H](CO)NC(=O)[C@H](C(C)C)NC(=O)[C@H](CC(C)C)NC(=O)[C@H](CCN)NC(=O)[C@@H](CC(C)C)NC(=O)[C@H](CCCN)NC1=O` (stereo partly drawn) [Compound 2578] ({CH2CO}-[Thr(3ξ)]Y(Carboxymethyl)DW[Gly(cPent)][Bip][Ile(3ξ)][Orn][dL][Dab]LVSCN-OH; thioether N-14), `CCC(C)[C@@H]1NC(=O)[C@H](Cc2ccc(-c3ccccc3)cc2)NC(=O)[C@H](CO)NC(=O)[C@H](Cc2c[nH]c3ccccc23)NC(=O)[C@H](CC(=O)O)NC(=O)[C@H](Cc2ccc(OCC(=O)O)cc2)NC(=O)[C@H](C(C)O)NC(=O)CSC[C@@H](C(=O)N[C@@H](CC(N)=O)C(=O)O)NC(=O)[C@H](CO)NC(=O)[C@H](C(C)C)NC(=O)[C@H](CC(C)C)NC(=O)[C@H](CCN)NC(=O)[C@@H](CC(C)C)NC(=O)[C@H](CCCN)NC1=O` (stereo partly drawn) [Compound 2581] ({CH2CO}-[Thr(3ξ)]Y(Carboxymethyl)DWS[Bip][Ile(3ξ)][Orn][dL][Dab]LVSCN-OH; thioether N-14) is 19-fold higher in IC50: 24.3 nM for the first, 472 nM for the second. The first is the more potent here.

Going from `CCC(C)[C@@H]1NC(=O)[C@H](Cc2ccc(-c3ccccc3)cc2)NC(=O)[C@H](CC#N)NC(=O)[C@H](Cc2c[nH]c3ccccc23)NC(=O)[C@H](CC(=O)O)NC(=O)[C@H](Cc2ccc(OCC(=O)O)cc2)NC(=O)[C@H](C(C)O)NC(=O)CSC[C@@H](C(=O)N[C@@H](CC(N)=O)C(=O)O)NC(=O)[C@H](CO)NC(=O)[C@H](C(C)C)NC(=O)[C@H](CC(C)C)NC(=O)[C@H](CCN)NC(=O)[C@@H](CC(C)C)NC(=O)[C@H](CCCN)NC1=O` (stereo partly drawn) [Compound 2579] ({CH2CO}-[Thr(3ξ)]Y(Carboxymethyl)DW[Ala(CN)][Bip][Ile(3ξ)][Orn][dL][Dab]LVSCN-OH; thioether N-14) to `CCC(C)[C@@H]1NC(=O)[C@H](Cc2ccc(-c3ccccc3)cc2)NC(=O)[C@H](Cc2c[nH]cn2)NC(=O)[C@H](Cc2c[nH]c3ccccc23)NC(=O)[C@H](CC(=O)O)NC(=O)[C@H](Cc2ccc(OCC(=O)O)cc2)NC(=O)[C@H](C(C)O)NC(=O)CSC[C@@H](C(=O)N[C@@H](CC(N)=O)C(=O)O)NC(=O)[C@H](CO)NC(=O)[C@H](C(C)C)NC(=O)[C@H](CC(C)C)NC(=O)[C@H](CCN)NC(=O)[C@@H](CC(C)C)NC(=O)[C@H](CCCN)NC1=O` (stereo partly drawn) [Compound 2580] ({CH2CO}-[Thr(3ξ)]Y(Carboxymethyl)DWH[Bip][Ile(3ξ)][Orn][dL][Dab]LVSCN-OH; thioether N-14), the IC50 falls from 153 nM to 45 nM (3.4-fold). The second is the more potent here.

First: CCC(C)[C@@H]1NC(=O)[C@H](Cc2ccc(-c3ccccc3)cc2)NC(=O)[C@H](CC(C)C)NC(=O)[C@H](Cc2c[nH]c3ccccc23)NC(=O)[C@H](CC(=O)O)NC(=O)[C@H](Cc2ccc(OCC(=O)O)cc2)NC(=O)[C@H](Cc2ccncc2)NC(=O)CSC[C@@H](C(=O)N[C@@H](CC(N)=O)C(=O)O)NC(=O)[C@H](CO)NC(=O)[C@H](C(C)C)NC(=O)[C@H](CC(C)C)NC(=O)[C@H](CCN)NC(=O)[C@@H](CC(C)C)NC(=O)[C@H](CCCN)NC1=O (stereo partly drawn) [Compound 2582] ({CH2CO}-[4Pal]Y(Carboxymethyl)DWL[Bip][Ile(3ξ)][Orn][dL][Dab]LVSCN-OH; thioether N-14)
Second: CCC(C)[C@@H]1NC(=O)[C@H](CC2CCCCC2)NC(=O)[C@H](CCN)NC(=O)[C@@H](CC(C)C)NC(=O)[C@H](CCCN)NC(=O)[C@H](C(C)CC)NC(=O)[C@H](Cc2ccc(-c3ccccc3)cc2)NC(=O)[C@H](C(C)CC)NC(=O)[C@H](Cc2c[nH]c3ccccc23)NC(=O)[C@H](CC(=O)O)NC(=O)[C@H](Cc2ccc(OCC(=O)O)cc2)NC(=O)[C@H](C(C)O)NC(=O)CSC[C@@H](C(=O)N(C)CC(N)=O)NC(=O)[C@H](CO)NC1=O (stereo partly drawn) [Compound 2584] ({CH2CO}-[Thr(3ξ)]Y(Carboxymethyl)DW[Ile(3ξ)][Bip][Ile(3ξ)][Orn][dL][Dab][Cha][Ile(3ξ)]SC[Sar]-NH2; thioether N-14)
The IC50 of the first is 9.9-fold lower: 9.8 nM for the first, 97 nM for the second. The first is the more potent here.

In the case of `CCC(C)[C@@H]1NC(=O)[C@H](CC2CCCCC2)NC(=O)[C@H](CCN)NC(=O)[C@@H](CC(C)C)NC(=O)[C@H](CCCN)NC(=O)[C@H](C(C)CC)NC(=O)[C@H](Cc2ccc(-c3ccccc3)cc2)NC(=O)[C@H](C(C)CC)NC(=O)[C@H](Cc2c[nH]c3ccccc23)NC(=O)[C@H](CC(=O)O)NC(=O)[C@H](Cc2ccc(OCC(=O)O)cc2)NC(=O)[C@H](C(C)O)NC(=O)CSC[C@@H](C(=O)N2CCC[C@H]2C(N)=O)NC(=O)[C@H](CO)NC1=O` (stereo partly drawn) [Compound 2583] ({CH2CO}-[Thr(3ξ)]Y(Carboxymethyl)DW[Ile(3ξ)][Bip][Ile(3ξ)][Orn][dL][Dab][Cha][Ile(3ξ)]SCP-NH2; thioether N-14), the IC50 is reported as 122 nM.
